Assay results taken from the supplement of paper PMC10307832.

Columns and labels:
Experiment in all cases: relative viability (nuclei count vs DMSO), 5 days (fraction); higher = more cells survive
Hydroxychloroquine = compound: CCN(CCO)CCCC(C)Nc1ccnc2cc(Cl)ccc12 [Hydroxychloroquine]
Procedure, shortened: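 On vehicle-anchored 1536-well plates, lung cancer cell lines held overnight at 37 °C were pinned with five library-drug doses (not always all listed) spaced by √10. With no medium change over 5 days, they were then fixed, permeabilised and Hoechst-stained in one step and imaged at 4×. MetaXpress counted nuclei, and viability is the median across plates of treated-well over vehicle-well nuclei. Acceptance needed control CV below 25% and at least one doubling.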

[1] = compound: CCN(CCO)CCCC(C)Nc1ccnc2cc(Cl)ccc12 [Hydroxychloroquine] + CC(C)C[C@H](NC(=O)[C@H](Cc1ccccc1)NC(=O)c1cnccn1)B(O)O [Bortezomib] (partner 0.002 µM)
Procedure, shortened: (§1)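 Lung cancer cell lines were seeded in 1536-well plates and dosed by pin tool the next day, with either a single drug or a fixed anchor-drug dose combined with five library-drug doses (not always all listed) spaced in √10 steps. Five days later, one step fixed the cells and stained their nuclei (final 0.05% Triton X-100, 1% formaldehyde, 1 ug/ml Hoechst), and nuclei were counted on 4× images. Relative viability is the nuclei count in treated wells divided by the count in vehicle wells, and each value is the median of duplicate plates.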

[2] = compound: CCN(CCO)CCCC(C)Nc1ccnc2cc(Cl)ccc12 [Hydroxychloroquine] + CC1(C)CCC(c2ccc(Cl)cc2)=C(CN2CCN(c3ccc(C(=O)NS(=O)(=O)c4ccc(N[C@H](CCN5CCOCC5)CSc5ccccc5)c(S(=O)(=O)C(F)(F)F)c4)cc3)CC2)C1 [Navitoclax] (partner 0.5 µM)
Procedure, shortened: as §1

[3] = compound: CCN(CCO)CCCC(C)Nc1ccnc2cc(Cl)ccc12 [Hydroxychloroquine] + COc1cc2c(Oc3ccc(NC(=O)C4(C(=O)Nc5ccc(F)cc5)CC4)cc3F)ccnc2cc1OCCCN1CCOCC1 [Foretinib] (partner 0.25 µM)
Procedure, shortened: as §1

[4] = compound: CCN(CCO)CCCC(C)Nc1ccnc2cc(Cl)ccc12 [Hydroxychloroquine] + CS(=O)(=O)CCNCc1ccc(-c2ccc3ncnc(Nc4ccc(OCc5cccc(F)c5)c(Cl)c4)c3c2)o1 [Lapatinib] (partner 2 µM)
Procedure, shortened: as §1

[5] = compound: CCN(CCO)CCCC(C)Nc1ccnc2cc(Cl)ccc12 [Hydroxychloroquine] + CS(=O)(=O)N1CCN(Cc2cc3nc(-c4cccc5[nH]ncc45)nc(N4CCOCC4)c3s2)CC1 [Pictilisib] (partner 1 µM)
Procedure, shortened: as §1

[6] = compound: CCN(CCO)CCCC(C)Nc1ccnc2cc(Cl)ccc12 [Hydroxychloroquine] + C[C@@H](Oc1cc(-c2cnn(C3CCNCC3)c2)cnc1N)c1c(Cl)ccc(F)c1Cl [Crizotinib] (partner 1 µM)
Procedure, shortened: as §1

[7] = compound: CCN(CCO)CCCC(C)Nc1ccnc2cc(Cl)ccc12 [Hydroxychloroquine] + C[C@]1(O)C[C@@H](c2nc(-c3ccc4ccc(-c5ccccc5)nc4c3)c3c(N)nccn32)C1 [Linsitinib] (partner 1 µM)
Procedure, shortened: as §1

[8] = compound: CCN(CCO)CCCC(C)Nc1ccnc2cc(Cl)ccc12 [Hydroxychloroquine] + Cc1nc(NC(=O)N2CCC[C@H]2C(N)=O)sc1-c1ccnc(C(C)(C)C(F)(F)F)c1 [Alpelisib] (partner 2 µM)
Procedure, shortened: as §1

[9] = compound: CCN(CCO)CCCC(C)Nc1ccnc2cc(Cl)ccc12 [Hydroxychloroquine] + O=C(CCCCCCC(=O)Nc1ccccc1)NO [Vorinostat] (partner 1 µM)
Procedure, shortened: as §1

[10] = compound: CCN(CCO)CCCC(C)Nc1ccnc2cc(Cl)ccc12 [Hydroxychloroquine] + O=C(c1cc(Cc2n[nH]c(=O)c3ccccc23)ccc1F)N1CCN(C(=O)C2CC2)CC1 [Olaparib] (partner 8 µM)
Procedure, shortened: as §1

IA-LM
relative viability (Hydroxychloroquine; 0.5 µM): 0.922
relative viability (Hydroxychloroquine; 1.581 µM): 0.971
relative viability (Hydroxychloroquine; 5 µM): 0.902
relative viability (Hydroxychloroquine; 15.81 µM): 0.962
relative viability (Hydroxychloroquine; 50 µM): 0.959
relative viability ([1]; first compound 0.5 µM): 0.695
relative viability ([1]; first compound 1.581 µM): 0.83
relative viability ([1]; first compound 5 µM): 0.909
relative viability ([1]; first compound 15.81 µM): 0.758
relative viability ([1]; first compound 50 µM): 1
relative viability ([2]; first compound 0.5 µM): 0.764
relative viability ([2]; first compound 1.581 µM): 0.79
relative viability ([2]; first compound 5 µM): 0.832
relative viability ([2]; first compound 15.81 µM): 0.798
relative viability ([2]; first compound 50 µM): 0.847
relative viability ([3]; first compound 0.5 µM): 1.15
relative viability ([3]; first compound 1.581 µM): 1.31
relative viability ([3]; first compound 5 µM): 1.12
relative viability ([3]; first compound 15.81 µM): 1.26
relative viability ([3]; first compound 50 µM): 1.27
relative viability ([4]; first compound 0.5 µM): 0.863
relative viability ([4]; first compound 1.581 µM): 1.09
relative viability ([4]; first compound 5 µM): 0.862
relative viability ([4]; first compound 15.81 µM): 0.869
relative viability ([4]; first compound 50 µM): 0.795
relative viability ([5]; first compound 0.5 µM): 0.296
relative viability ([5]; first compound 1.581 µM): 0.357
relative viability ([5]; first compound 5 µM): 0.361
relative viability ([5]; first compound 15.81 µM): 0.433
relative viability ([5]; first compound 50 µM): 0.338
relative viability ([6]; first compound 0.5 µM): 0.839
relative viability ([6]; first compound 1.581 µM): 0.95
relative viability ([6]; first compound 5 µM): 0.898
relative viability ([6]; first compound 15.81 µM): 0.718
relative viability ([6]; first compound 50 µM): 0.899
relative viability ([7]; first compound 0.5 µM): 0.569
relative viability ([7]; first compound 1.581 µM): 0.281
relative viability ([7]; first compound 5 µM): 0.66
relative viability ([7]; first compound 15.81 µM): 0.383
relative viability ([7]; first compound 50 µM): 0.695
relative viability ([8]; first compound 0.5 µM): 0.878
relative viability ([8]; first compound 1.581 µM): 0.377
relative viability ([8]; first compound 5 µM): 0.811
relative viability ([8]; first compound 15.81 µM): 0.607
relative viability ([8]; first compound 50 µM): 0.887
relative viability ([9]; first compound 0.5 µM): 1.02
relative viability ([9]; first compound 1.581 µM): 1.13
relative viability ([9]; first compound 5 µM): 1.03
relative viability ([9]; first compound 50 µM): 1.06
relative viability ([10]; first compound 0.5 µM): 0.756
relative viability ([10]; first compound 1.581 µM): 0.887
relative viability ([10]; first compound 5 µM): 0.8
relative viability ([10]; first compound 15.81 µM): 0.892
relative viability ([10]; first compound 50 µM): 0.754
